SMILES strings stand for the structures. Like-named read-outs stand apart in the source and are kept apart here.

Results on 26 compounds are retold here after patent publication US20230250096A1, “SUBSTITUTED PHENYL-1H-PYRROLO[2,3-c] PYRIDINE DERIVATIVES” (Janssen Pharmaceutica NV, priority 2021, published 2023).

Holding throughout (format): cell-based, human
One assay relates to MEIS1 mRNA expression. Nature of the assay: MEIS1 mRNA expression assay (Quantigene Singleplex) in MOLM14 cells. The conditions noted are these: 48 hours incubation. In outline: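 MOLM14 cells, 3,750/well, exposed to increasing compound concentrations for 48 h. MEIS1 mRNA measured by QuantiGene Singleplex branched-DNA hybridization (lysis 45 min, hybridization 18–22 h, both 55 °C), normalized to RPL28. IC50 fitted to background-corrected fold change versus DMSO.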

For a further assay, the system named is KO-52 cells. Nature of the assay: Proliferation assay (spheroid confluence, 8 days), KO-52 control cell line. The conditions noted are these: read-out: spheroid assay_KO-52 IC50. In outline:
(§1)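 Cells grown as spheroids in ultra-low attachment round-bottom wells (200 MOLM14 or OCI-AML3, 300 KO-52 per well) with compound dilutions at 0.3% DMSO, 8 days, 37° C. Confluence from live-cell imaging at day 8; % effect normalized to DMSO and high-dose reference/staurosporin, absolute IC50 from variable-slope fit.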

The test system of the next assay is MOLM14 cells. The assay can be described thus: Proliferation assay (spheroid confluence, 8 days), MOLM14. As to conditions: read-out: spheroid assay_MOLM14 IC50. In outline: as §1

In general, IC50 refers to the concentration that gives 50% inhibition. For the compound `CCN(C(=O)c1cc(F)ccc1-n1cc(CC2CN(C(C(C)C)[C@H]3C[C@@H](N4C[C@H]5CN(C(C)=O)C[C@@H]5C4)C3)C2)c2c(C)cncc21)C(C)C` (mixture of isomers) [Compound 38a], the IC50 with MEIS1 mRNA expression (Homo sapiens, MOLM-14, 48 h) was 0.006 µM; in the assay with KO-52 cells (Homo sapiens) it was 0.8 µM; in the assay on MOLM14 cells (Homo sapiens, MOLM-14, MOLM14) it was under 0.0018 µM.
The like results for `Cc1cncc2c1c(C[C@H]1CCN(C(C)C3CCOCC3)C1)cn2-c1ccc(F)cc1C(=O)N(C)C(C)C` (mixture of isomers) [Compound 49] were, in that order, 0.017 µM, 3 µM and 0.003 µM.
As to `CC(=O)N1CCN([C@H]2C[C@@H]([C@@H](C(C)C)N3CC(Cc4cn(-c5ccc(F)cc5C(=O)N(C)C(C)C)c5cncc(C)c45)C3)C2)CC1` (single isomer, unassigned) [Compound 32a], the IC50 with MEIS1 mRNA expression (Homo sapiens, MOLM-14, 48 h) amounted to 0.022 µM; with KO-52 cells (Homo sapiens) it was 5.5 µM; in the assay on MOLM14 cells (Homo sapiens, MOLM-14, MOLM14), 0.005 µM.
Regarding `CC(=O)N1C[C@@H]2CN([C@H]3C[C@@H]([C@@H](C(C)C)N4CC(Cc5cn(-c6ccc(F)cc6C(=O)N(C)C(C)C)c6cncc(Cl)c56)C4)C3)C[C@H]2C1` (single isomer, unassigned) [Compound 39a], the IC50 in the assay on MEIS1 mRNA expression (Homo sapiens, MOLM-14, 48 h) was 0.005 µM; with KO-52 cells (Homo sapiens), over 15 µM; in the assay on MOLM14 cells (Homo sapiens, MOLM-14, MOLM14), 0.002 µM.
For `Cc1cncc2c1c(C[C@@H]1CCN(CC3CCOCC3)C1)cn2-c1ccc(F)cc1C(=O)N(C)C(C)C` (single isomer, unassigned) [Compound 42], in that order: 0.045 µM, 2.8 µM and 0.031 µM.
For `Cc1cncc2c1c(C[C@H]1CCN(CC3CCOCC3)C1)cn2-c1ccc(F)cc1C(=O)N(C)C(C)C` (single isomer, unassigned) [Compound 43], in that order: 0.024 µM, 3.3 µM and 0.014 µM.
On to `Cc1cncc2c1c(C[C@@H]1CCN(CC(C)C)C1)cn2-c1ccc(F)cc1C(=O)N(C)C(C)C` (single isomer, unassigned) [Compound 44], for which the IC50 in the assay on MEIS1 mRNA expression (Homo sapiens, MOLM-14, 48 h) amounted to 0.043 µM; in the assay on KO-52 cells (Homo sapiens) it was 4.7 µM; with MOLM14 cells (Homo sapiens, MOLM-14, MOLM14), 0.071 µM.
For the compound `Cc1cncc2c1c(C[C@H]1CCN(CC(C)C)C1)cn2-c1ccc(F)cc1C(=O)N(C)C(C)C` (single isomer, unassigned) [Compound 45], the IC50 with MEIS1 mRNA expression (Homo sapiens, MOLM-14, 48 h) was 0.056 µM; in the assay with KO-52 cells (Homo sapiens) it was 6.2 µM; in the assay with MOLM14 cells (Homo sapiens, MOLM-14, MOLM14), 0.053 µM.
For `Cc1cncc2c1c(C[C@H]1CCN([C@@H](C)C3CCOCC3)C1)cn2-c1ccc(F)cc1C(=O)N(C)C(C)C` (single isomer, unassigned) [Compound 49b], in that order: 0.009 µM, 4.1 µM and 0.003 µM.
The like results for `CC(=O)N1CCC(CN2CC[C@@H](Cc3cn(-c4ccc(F)cc4C(=O)N(C)C(C)C)c4cncc(C)c34)C2)CC1` (single isomer, unassigned) [Compound 50] were, in that order, 0.089 µM, 2.3 µM and 0.039 µM.
The like results for `COCC(=O)N1CCC(CN2CCC(Cc3cn(-c4ccc(F)cc4C(=O)N(C)C(C)C)c4cncc(C)c34)C2)CC1` (single isomer, unassigned) [Compound 59] were, in that order, 0.009 µM, 2.1 µM and 0.011 µM.
On to `Cc1cncc2c1c(CC1CCN(CC3CCN(C(=O)CC#N)CC3)C1)cn2-c1ccc(F)cc1C(=O)N(C)C(C)C` (single isomer, unassigned) [Compound 60], for which the IC50 in the assay with MEIS1 mRNA expression (Homo sapiens, MOLM-14, 48 h) was determined as 0.007 µM; in the assay with KO-52 cells (Homo sapiens) it was 2.7 µM; in the assay on MOLM14 cells (Homo sapiens, MOLM-14, MOLM14) it was 0.013 µM.
Take `Cc1cncc2c1c(C[C@H]1CCN(C[C@H]3CC[C@H](NS(C)(=O)=O)CC3)C1)cn2-c1ccc(F)cc1C(=O)N(C)C(C)C` (single isomer, unassigned) [Compound 69]: the IC50 worked out at 0.017 µM in the assay on MEIS1 mRNA expression (Homo sapiens, MOLM-14, 48 h); 11 µM with KO-52 cells (Homo sapiens); 0.005 µM in the assay on MOLM14 cells (Homo sapiens, MOLM-14, MOLM14).
`CNC(=O)[C@H]1CC[C@H](CN2CCC(Cc3cn(-c4ccc(F)cc4C(=O)N(C)C(C)C)c4cncc(C)c34)C2)CC1` (single isomer, unassigned) [Compound 70]: the IC50 came to 0.048 µM in the assay on MEIS1 mRNA expression (Homo sapiens, MOLM-14, 48 h); 8.5 µM in the assay on KO-52 cells (Homo sapiens); 0.04 µM in the assay on MOLM14 cells (MOLM14).
Regarding `CNC(=O)[C@H]1CC[C@H](CN2CCC(Cc3cn(-c4ccc(F)cc4C(=O)N(C)C(C)C)c4cncc(C)c34)C2)CC1` (single isomer, unassigned) [Compound 71], the IC50 with MEIS1 mRNA expression is 0.048 µM; in the assay on KO-52 cells, over 15 µM; in the assay with MOLM14 cells (MOLM14) it was 0.083 µM.
With `Cc1cncc2c1c(C[C@@H]1CCN(CC3CCOCC3)C1)cn2-c1ccc(F)cc1C(=O)N(C[C@H](C)O)C(C)C` (single isomer, unassigned) [Compound 365b], the IC50 is 0.011 µM in the assay with MEIS1 mRNA expression (Homo sapiens, MOLM-14, 48 h) and 0.008 µM in the assay with MOLM14 cells (Homo sapiens, MOLM-14, MOLM14).
Regarding `COCCN(C)CCCC(C(C)C)N1CC[C@@H](Cc2cn(-c3ccc(F)cc3C(=O)N(C)C(C)C)c3cncc(C)c23)C1` (some centres unmarked) [Compound 1], the IC50 in the assay with MEIS1 mRNA expression (Homo sapiens, MOLM-14, 48 h) is 0.004 µM; with KO-52 cells (Homo sapiens), 7.5 µM; in the assay with MOLM14 cells (Homo sapiens, MOLM-14, MOLM14), 0.002 µM.
For `Cc1cncc2c1c(CC1CN([C@@H](C(C)C)[C@H]3C[C@@H](N4CCC(S(C)(=O)=O)CC4)C3)C1)cn2-c1ccc(F)cc1C(=O)N(C)C(C)C` [Compound 33a], the IC50 with MEIS1 mRNA expression (Homo sapiens, MOLM-14, 48 h) was determined as 0.011 µM; in the assay with KO-52 cells (Homo sapiens), 3 µM; with MOLM14 cells (Homo sapiens, MOLM-14, MOLM14) it was 0.01 µM.
With `CCN(C(=O)c1cc(F)ccc1-n1cc(CC2CN(C(C(C)C)[C@H]3C[C@@H](N4CCN(S(C)(=O)=O)CC4)C3)C2)c2c(C)cncc21)C(C)C` (some centres unmarked) [Compound 37a], the IC50 in the assay with MEIS1 mRNA expression (Homo sapiens, MOLM-14, 48 h) is 0.027 µM; in the assay on KO-52 cells (Homo sapiens), 0.8 µM; in the assay with MOLM14 cells (Homo sapiens, MOLM-14, MOLM14) it was 0.008 µM.
In the case of `CC(C)C([C@H]1C[C@@H](N(C)C)C1)N1CC(Cc2cn(-c3ccc(F)cc3C(=O)N(C)C(C)C)c3cncc(Cl)c23)C1` (some centres unmarked) [Compound 41], the IC50 came out at 0.015 µM with MEIS1 mRNA expression (Homo sapiens, MOLM-14, 48 h); 1.4 µM in the assay with KO-52 cells (Homo sapiens); 0.014 µM in the assay with MOLM14 cells (Homo sapiens, MOLM-14, MOLM14).
Take `CC(=O)N1CCC(CN2CCC(Cc3cn(-c4ccc(F)cc4C(=O)N(C)C(C)C)c4cncc(C)c34)CC2)CC1` [Compound 58]: the IC50 came to 0.183 µM in the assay on MEIS1 mRNA expression (Homo sapiens, MOLM-14, 48 h); 10.4 µM with KO-52 cells (Homo sapiens); 0.176 µM in the assay with MOLM14 cells (Homo sapiens, MOLM-14, MOLM14).
For the compound `Cc1cncc2c1c(CC1CN(CC3CCOCC3)C1)cn2-c1ccc(F)cc1C(=O)N(C)C(C)C` [Compound 61], the IC50 in the assay with MEIS1 mRNA expression (Homo sapiens, MOLM-14, 48 h) was 0.023 µM; in the assay on KO-52 cells (Homo sapiens) it was 7.9 µM; in the assay on MOLM14 cells (Homo sapiens, MOLM-14, MOLM14), 0.01 µM.
For `CC(=O)N1CCC(CN2CC(Cc3cn(-c4ccc(F)cc4C(=O)N(C)C(C)C)c4cncc(C)c34)C2)CC1` [Compound 63], in that order: 0.083 µM, 5.9 µM and 0.053 µM.
As to `COCC(=O)N1CCC(CN2CC(Cc3cn(-c4ccc(F)cc4C(=O)N(C)C(C)C)c4cncc(C)c34)C2)CC1` [Compound 66], the IC50 came to 0.046 µM with MEIS1 mRNA expression (Homo sapiens, MOLM-14, 48 h); 7.7 µM in the assay on KO-52 cells (Homo sapiens); 0.018 µM in the assay with MOLM14 cells (Homo sapiens, MOLM-14, MOLM14).
For the compound `Cc1cncc2c1c(CC1CN(CC3CCN(C(=O)CC#N)CC3)C1)cn2-c1ccc(F)cc1C(=O)N(C)C(C)C` [Compound 67], the IC50 in the assay on MEIS1 mRNA expression (Homo sapiens, MOLM-14, 48 h) is about 0.068 µM; in the assay with KO-52 cells (Homo sapiens), 12 µM; in the assay with MOLM14 cells (Homo sapiens, MOLM-14, MOLM14), 0.048 µM.
The like results for `Cc1cncc2c1c(C[C@@H]1CCN(CC3CCOCC3)C1)cn2-c1ccc(F)cc1C(=O)N(CCO)C(C)C` [Compound 357] were, in that order, 0.015 µM, 3 µM and 0.008 µM.
